Experimental findings from BindingDB's records for doi:10.1016/j.bmc.2010.04.086 (Hoshi University, 2010) are described below.

For this assay, the target named is T1, Polyphenol oxidase 2 (Agaricus bisporus, UniProt O42713).
T1 sequence (O42713 whole entry): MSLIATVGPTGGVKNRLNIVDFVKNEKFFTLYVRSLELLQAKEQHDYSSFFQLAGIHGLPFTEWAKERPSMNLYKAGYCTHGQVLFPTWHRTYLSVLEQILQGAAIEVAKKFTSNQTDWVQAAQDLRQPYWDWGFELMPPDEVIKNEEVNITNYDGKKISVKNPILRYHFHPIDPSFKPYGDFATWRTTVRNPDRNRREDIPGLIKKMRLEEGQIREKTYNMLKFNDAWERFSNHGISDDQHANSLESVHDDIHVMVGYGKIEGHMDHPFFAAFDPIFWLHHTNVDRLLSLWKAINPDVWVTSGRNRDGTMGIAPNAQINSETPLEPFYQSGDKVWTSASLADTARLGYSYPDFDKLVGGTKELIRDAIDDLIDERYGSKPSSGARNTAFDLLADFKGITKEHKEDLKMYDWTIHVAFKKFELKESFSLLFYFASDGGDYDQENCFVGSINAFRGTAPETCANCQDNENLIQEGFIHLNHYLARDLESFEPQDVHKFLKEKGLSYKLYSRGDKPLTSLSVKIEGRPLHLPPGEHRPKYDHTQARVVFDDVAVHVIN
Nature of the assay: Inhibition of mushroom tyrosinase.

Consider `COC(=O)C1C2=Nc3c(O)cccc3[C@]23CCN2C[C@H](C(C)=O)[C@H]1C[C@@H]23` (stereo not given in full) [Alpneumine B], for which the IC50 was > 100 µM.

On to `COC(=O)C1C2=Nc3ccccc3[C@]23CCN2C[C@@H](C(C)=O)[C@H]1C[C@@H]23` (stereo not given in full) [Alpneumine E], for which the IC50 was > 100 µM.

Turning to `COC(=O)C1C2=Nc3c(O)cccc3[C@]23CC[N+]2([O-])C[C@H](C(C)=O)[C@H]1C[C@H]32` (stereo not given in full) [Alpneumine A], the half-maximal inhibitory concentration (IC50) was > 100 µM.

In the case of `COC(=O)C1C2=Nc3ccccc3[C@]23CC[N+]2([O-])C[C@H](C(C)=O)[C@H]1C[C@H]32` (stereo not given in full) [Alpneumine C], the IC50 is > 100 µM.

Take `COC(=O)C1C2=Nc3c(O)cccc3[C@]23CCN2C[C@@H](C(C)=O)[C@H]1C[C@@H]23` (stereo not given in full) [Alpneumine D]: the 50% inhibitory concentration (IC50) was > 100 µM.
